Measured values from patent US20180310564A1, “Mesoionic Compound” (Nippon Kayaku Kabushiki Kaisha, priority 2015, published 2018).
Counter-ions that a name gives are not always drawn.

Tests used:
Type in all cases: in vivo
[1] = system: Brown Planthopper (Nilaparvata lugens); assay: Test (foliar dipping) for controlling brown planthopper; details: 120 h, rice seedlings dipped, 5 days after treatment; for mortality at 200 ppm: third instar larvae
Description: […] After air-drying, the rice seedlings held with urethane in a glass cylinder having an inner diameter of 4.5 cm and a length of 14 cm were set up in a plastic cup containing 40 mL of water. Larvae of brown planthoppers in the third instar larva were released there. The cylinder was covered with a lid of medicine paper and kept in a chamber at a constant temperature of 25° C. for rearing.

[2] = system: Rice Stem Borer (Chilo suppressalis); assay: Test (pot test) for controlling rice stem borer; details: 14 days after treatment; for Browning stem ratio (%): 500 g/ha as wettable powder (Formulation Example 2) at rice roots, hatchlings released after 4 days; for Ratio to untreated (%): browning stem ratio relative to untreated, 500 g/ha
Description: The roots of five sampled rice seedlings were washed with water. The wettable powder prepared in accordance with Formulation Example 2 described above was wrapped in the roots to be planted in a Wagner pot of 1/10000 a. After 4 days from the treatment, a total of […] of rice stem borer were released per strain and reared in a plastic greenhouse with a room temperature set at 25° C. On 14 days after the treatment, the ratio of browning stem of seedlings for each strain and the ratio to untreated ones were calculated. Double system.

[3] = system: Cotton Aphid (Aphis gossypii); assay: Test (foliar spraying) for controlling cotton aphid; details: 120 h, 5 days after treatment; for mortality at 200 ppm: foliar spraying on cucumber leaf
Description: A cucumber leaf cut to a diameter of 3.5 cm was placed on cotton wool moistened with water. Two adult cotton aphids were released there for offspring for 24 hours and the adult insects were then removed. […] After air-drying, the sample with cotton wool was placed in a plastic cup, which was covered with a lid and kept in a chamber at a constant temperature of 25° C. for rearing.

[4] = system: Brown Planthopper (Nilaparvata lugens); assay: Residual effect test (field experiment) for brown planthopper
Description: The roots of five sampled rice seedlings were washed with water. Subsequently, 25 mg of the wettable powder prepared in accordance with Formulation Example 2 described above was wrapped in the roots. Each strain was made from the five seedlings. In outdoor artificial paddy fields made from wooden frames having a size of 60 cm by 90 cm, 10 strains were planted, respectively. The artificial paddy field was shielded by an insect screen with a mesh size of 1 mm, so that invasion of harmful insects from the outside was prevented. Into the test system, 40 to 100 adult brown planthoppers were released at fixed intervals so as to cause damage to the rice. On 16 to 51 days after the treatment, the numbers of surviving insects and dead insects were measured to calculate the density index. The density index was obtained from the following expression.

[5] = system: Sweetpotato whitefly (Bemisia tabaci); assay: Test (foliar spraying) for controlling sweetpotato whitefly; details: 120 h, foliar spraying on cucumber leaf, female adults, 5 days after treatment
Description: A cucumber leaf cut to a diameter of 6.0 cm was placed on cotton wool moistened with water. The diluent of the test compounds diluted to 200 ppm in an amount of 2 mL was sprayed onto the cucumber leaves with a spray tower. After air-drying, the cucumber leaf was placed in a plastic cup, and 20 female adult sweetpotato whiteflies were released there. The cup was covered with a lid and kept in a chamber at a constant temperature of 25° C. for rearing.

[6] = system: Inedorooimushi (Oulema oryzae); assay: Test (pot test) for controlling inedorooimushi; details: larvae released 20 days after treatment, 2 days after release; for mortality at 500 g/ha: 500 g/ha as wettable powder at rice roots
Description: The roots of five sampled rice seedlings were washed with water. The wettable powder prepared in accordance with Formulation Example 2 described above was wrapped in the roots to be planted in a Wagner pot of 1/10000 a. After 20 days from the treatment, 3 larvae of inedorooimushi in the late instar larva were released per strain and reared in a plastic greenhouse with a room temperature set at 25° C. On 2 days after the releasing of the insects, the mortality of the insect was calculated.

[7] = system: Rice Leaf Beetle (Oulema oryzae); assay: Test (root dipping) for controlling rice leaf beetle; details: 4 days after treatment; for mortality at 1.6 ppm: root dipping of rice seedlings, late instar larvae released after 2 days
Description: (§1) Ten sampled rice seedlings held with urethane in a glass cylinder having an inner diameter of 4.5 cm and a length of 14 cm were set up in a plastic cup containing 40 mL of chemical solution diluted to a desired concentration. After 2 days, 4 larvae of rice leaf beetle in the late instar larva were released in the glass cylinder. The glass cylinder was covered with a lid of medicine paper and kept in a chamber at a constant temperature of 25° C. for rearing.

[8] = system: Diamondback Moth (Plutella xylostella); assay: Test (foliar dipping) for controlling diamondback moth; details: 72 h, foliar dipping of cabbage leaf, third instar larvae, 3 days after treatment
Description: A cabbage leaf cut to a diameter of 5.0 cm was dipped in the diluent of the test compounds diluted to 200 ppm in an amount of 20 mL and air-dried. After air-drying, the cabbage leaf was placed in a plastic cup, and 10 larvae of diamondback moths in the third instar larva were released there. The cup was covered with a lid and kept in a chamber at a constant temperature of 25° C. for rearing.

[9] = system: Southern Yellow thrips (Thrips palmi); assay: Test (foliar spraying) for controlling southern yellow thrips; details: 72 h; 200 ppm, foliar spraying on cucumber leaf, first instar larvae, 3 days after treatment
Description: A cucumber leaf cut to a diameter of 1.5 cm was placed on cotton wool moistened with water. […] After air-drying, 5 larvae of southern yellow thrips in the first instar larva were released there. The sample with cotton wool was placed in a plastic cup, which was covered with a lid and kept in a chamber at a constant temperature of 25° C. for rearing.

[10] = system: Brown Planthopper (Nilaparvata lugens); assay: Test (root dipping) for controlling brown planthopper; details: 120 h, root dipping, 5 days after treatment
Description: as §1, with “days, 10” for “days, 4”, “of brown planthoppers” for “of rice leaf beetle”, “the third” for “the late”

[11] = system: Brown Winged Green Stink Bug (Plautia stali); assay: Test (greenhouse test) for controlling brown winged green stink bug; details: 100 ppm sprayed on apple fruit; for Number of abnormal insects / Number of dead insects / Number of normal insects: 5 adults released 7 days after treatment, triple system, 4 days after release; for Total number of sheaths formed by stylet insertion: fruit stained with fuchsine after examination; for Proportion of abnormal insects and dead insects on 4 days after releasing insects (%): insects released 7 days after treatment
Description: Using a commercially available hand spray, a chemical solution diluted to a concentration of 100 ppm was sprayed onto an apple fruit (cultivar: Fuji). After air-drying, the apple fruit was placed in a plastic cup, which was allowed to stand still for a specified number of […] in a plastic greenhouse with a room temperature set at 25° C. and with the natural light shining thereon. On 7 days after the treatment, 5 adult brown winged green stink bugs (without distinction between male and female) were released onto the treated fruit. On 4 days after the release of insects, the numbers of death and abnormality were observed and recorded. Triple system. Also, the fruit after examination was immersed in an acidic 0.5% fuchsine solution for 30 minutes, and then washed with water to measure the total number of sapping scars.

[12] = After 16 days, 25 mg wettable powder (Formulation Example 2) at roots per strain, outdoor artificial paddy field
[13] = After 23 days, 25 mg wettable powder at roots per strain, artificial paddy field
[14] = After 30 days, 25 mg wettable powder at roots per strain, artificial paddy field
[15] = After 37 days, 25 mg wettable powder at roots per strain, artificial paddy field
[16] = After 44 days, 25 mg wettable powder at roots per strain, artificial paddy field
[17] = After 51 days, 25 mg wettable powder at roots per strain, artificial paddy field

Structure (SMILES) | mortality at 0.01 ppm [1] | mortality at 0.02 ppm [1] | mortality at 0.05 ppm [1] | mortality at 200 ppm [1] | Browning stem ratio (%) [2] | Ratio to untreated (%) [2] | mortality at 0.8 ppm ([3]; foliar spraying) | mortality at 200 ppm [3] | Density index of Nilaparvata lugens [4, 12] | Density index of Nilaparvata lugens [4, 13] | Density index of Nilaparvata lugens [4, 14] | Density index of Nilaparvata lugens [4, 15] | Density index of Nilaparvata lugens [4, 16] | Density index of Nilaparvata lugens [4, 17] | mortality at 200 ppm [5] | mortality at 125 g/ha [6] | mortality at 250 g/ha [6] | mortality at 500 g/ha [6] | mortality at 200 ppm [8] | mortality at 200 ppm [9] | other results
Cc1cccc(-c2c([O-])[n+](CCC#N)c3ccccn3c2=O)c1 [Compound 3, 1-(2-cyanoethyl)-2-hydroxy-4-oxo-3-(3-toluyl)-4H-pyrido[1,2-a]pyrimidinium inner salt] | 10% | 40% | 80% | ≥ 80% | 0% | 0% | 100% | ≥ 80% | 7.7 | 0 | 28.4 | 23.8 | 13.0 | 88.5 | ≥ 80% | 33.3% | 50% | 100% | ≥ 80% | ≥ 80% | mortality at 1.6 ppm [7]: 100%; mortality at 0.8 ppm ([7]; 96 h, root dipping): 100%; mortality at 0.025 ppm ([10]; 0.025 ppm): 50%; mortality at 0.05 ppm ([10]; 0.05 ppm): 60%; mortality at 0.1 ppm ([10]; 0.1 ppm): 100%; Number of abnormal insects [11]: 7; Number of dead insects [11]: 6; Number of normal insects [11]: 2; Total number of sheaths formed by stylet insertion [11]: 5; Proportion of abnormal insects and dead insects on 4 days after releasing insects (%) [11]: 86.7%
N#CCC[n+]1c(O)c(-c2cccc(C(F)F)c2)c(=O)n2ccccc21 [Compound 48, 1-(2-cyanoethyl)-3-(3-difluoromethylphenyl)-2-hydroxy-4-oxo-4H-pyrido[1,2-a]pyrimidinium inner salt] | 0% | 20% | 100% | ≥ 80% |  |  |  | ≥ 80% |  |  |  |  |  |  | ≥ 80% |  |  |  | ≥ 80% |  | 
N#CCC[n+]1c([O-])c(-c2cccc(C(F)(F)F)c2)c(=O)n2ccccc21 [Compound 51, 1-(2-cyanoethyl)-2-hydroxy-4-oxo-3-(3-trifluoromethylphenyl)-4H-pyrido[1,2-a]pyrimidinium inner salt] |  |  |  | ≥ 80% | 10% | 12% | 100% | ≥ 80% | 0 | 2.6 | 21.7 | 43.1 | 37.1 | 76.2 |  | 83.3% | 100% | 100% | ≥ 80% | ≥ 80% | mortality at 0.1 ppm ([3]; 0.1 ppm, foliar spraying): 100%; mortality at 1.6 ppm [7]: 100%; mortality at 0.4 ppm ([7]; 96 h, 0.4 ppm, root dipping): 100%; mortality at 0.8 ppm ([7]; 96 h, root dipping): 100%; Number of abnormal insects [11]: 7; Number of dead insects [11]: 8; Number of normal insects [11]: 0; Total number of sheaths formed by stylet insertion [11]: 1; Proportion of abnormal insects and dead insects on 4 days after releasing insects (%) [11]: 100%
N#CCC[n+]1c([O-])c(-c2cccc(OC(F)(F)F)c2)c(=O)n2ccccc21 [Compound 57, 1-(2-cyanoethyl)-2-hydroxy-4-oxo-3-(3-trifluoromethoxyphenyl)-4H-pyrido[1,2-a]pyrimidinium inner salt] |  |  |  | ≥ 80% | 0% | 0% |  | ≥ 80% | 0 | 0 | 25.4 | 50.4 | 33.0 | 80.7 |  |  |  |  | ≥ 80% | ≥ 80% | 
